# In paper PMC6018746, “Activation of the p53-MDM4 regulatory axis defines the anti-tumour response to PRMT5 inhibition through its role in regulating cellular splicing” (Scientific Reports, 2018):
# Read-outs that look alike come from different tables or passages of the source.
# Tested on: panel of 240 cancer cell lines
# Experiment: 10-day growth/death assay (Eurofins panel)
# Format: cell-based
# Details: Homo sapiens, read-out: gIC50
# Description: To further develop these molecules and to guide clinical strategy, it was necessary to understand sensitivity in preclinical models by assessing the anti-tumour activity of the PRMT5 inhibitors in various cancers. […] Lymphoma, including MCL and diffuse large B-cell lymphoma (DLBCL), breast, and multiple myeloma cell lines were among the most sensitive tumour types and had gIC50 values in the low nM range (Fig. 1B). […] Since lymphoma and breast cancer cell lines were among the most sensitive in the proliferation screens, subsequent mechanistic studies were performed in these tumour types.
compound,measurement,setting,value
O=C(NC[C@H](O)CN1CCc2ccccc2C1)c1ccnc(NC2CCC2)c1 [GSK3203591],IC50,"22Rv1, 22Rv1",2480 nM
same,IC50,639-V,342 nM
same,IC50,647-V,62 nM
same,IC50,769-P,203 nM
same,IC50,"786-0, 786-O",20.3 nM
same,IC50,5637.000,285 nM
same,IC50,A7,36.7 nM
same,IC50,A101D,190 nM
same,IC50,"A 172, A172",29.6 nM
same,IC50,"A204, A204",223 nM
same,IC50,"A498, A498",50.7 nM
same,IC50,"A549, A549",80.9 nM
same,IC50,"A673, A-673",119 nM
same,IC50,"A-375, A375",79.6 nM
same,IC50,"A-431, A431",549 nM
same,IC50,ACHN,38.6 nM
same,IC50,AGS,2030 nM
same,IC50,"AN3-CA, AN3 CA",254 nM
same,IC50,"ARH-77, ARH-77",44.4 nM
same,IC50,"ASPC1, AsPC-1",302 nM
same,IC50,"AU565, AU565",14.6 nM
same,IC50,"BC1, BC-1",69.6 nM
same,IC50,"BE(2)-C, BE(2)C",803 nM
same,IC50,"BFTC-905, BFTC-905",259 nM
same,IC50,"BPH-1, BPH1",718 nM
same,IC50,"BT-20, BT20",2280 nM
same,IC50,"BT-474, BT474",172 nM
same,IC50,"BT-549, BT-549",59.4 nM
same,IC50,"BV-173, BV-173",10.6 nM
same,IC50,"BXPC-3, BxPC-3",160 nM
same,IC50,BeWo,1090 nM
same,IC50,"C32, C32",14.1 nM
same,IC50,"C-4-II, C-4 II",266 nM
same,IC50,C-4I,139 nM
same,IC50,"C-33-A, C-33A",228 nM
same,IC50,"CAKI-1, Caki-1",68.8 nM
same,IC50,"CAKI-2, Caki-2",114 nM
same,IC50,"CAL-27, Cal 27",103 nM
same,IC50,"CAL-62, CAL-62",253 nM
same,IC50,"CAMA-1, CAMA-1",78.9 nM
same,IC50,"CAPAN-1, Capan-1",370 nM
same,IC50,"CCF-STTG1, CCF-STTG1",115 nM
same,IC50,"CCRF-CEM, CCRFCEM",3140 nM
same,IC50,"CEM/C1, CEM-C1",7.92 nM
same,IC50,"CFPAC-1, CFPAC-1",52.3 nM
same,IC50,"CGTH-W-1, CGTH-W-1",82.2 nM
same,IC50,"CHL-1, CHL-1",247 nM
same,IC50,"CHP-212, CHP-212",24 nM
same,IC50,"CML-T1, CML-T1",16.1 nM
same,IC50,"COLO 201, Colo 201",49.6 nM
same,IC50,"COLO 205, Colo 205",> 10000 nM
same,IC50,COLO 320DM,82.5 nM
same,IC50,"COLO-320-HSR, Colo 320 HSR",80.3 nM
same,IC50,"COLO-829, COLO 829",54.4 nM
same,IC50,"COR-L23, COR-L23",147 nM
same,IC50,"COR-L105, COR-L105",314 nM
same,IC50,"CRO-AP2, CRO-AP2",250 nM
same,IC50,"Calu-1, Calu1",3050 nM
same,IC50,"Caov-3, CaOV3",298 nM
same,IC50,"Capan-2, Capan-2",69.7 nM
same,IC50,"ChaGo-K-1, ChaGoK1",1190 nM
same,IC50,D283 Med,23.5 nM
same,IC50,DB,2.51 nM
same,IC50,DBTRG-05MG,156 nM
same,IC50,DK-MG,89.5 nM
same,IC50,"DLD-1, DLD-1",134 nM
same,IC50,"DMS-114, DMS114",1010 nM
same,IC50,"DOHH-2, DOHH-2",157 nM
same,IC50,Daoy,270 nM
same,IC50,Daudi,142 nM
same,IC50,"Detroit 562, Detroit 562",104 nM
same,IC50,"DoTc2-4510, DoTc2 4510",95.8 nM
same,IC50,"EB-3, EB-3",299 nM
same,IC50,"EFM-19, EFM-19",69.5 nM
same,IC50,"EM-2, EM-2",94 nM
same,IC50,"ES-2, ES-2",106 nM
same,IC50,FaDu,15.4 nM
same,IC50,"G-401, G-401",38.4 nM
same,IC50,"G-402, G-402",99.7 nM
same,IC50,H4,151 nM
same,IC50,"HCT-8, HCT-8",430 nM
same,IC50,"HCT-15, HCT-15",68.4 nM
same,IC50,"HCT-116, HCT-116",166 nM
same,IC50,HEC-1-A,2440 nM
same,IC50,"HEL 92.1.7, HEL-92-1-7",9.02 nM
same,IC50,HLE,174 nM
same,IC50,HLF,87.7 nM
same,IC50,HMCB,666 nM
same,IC50,HOS,223 nM
same,IC50,HPAF-II,154 nM
same,IC50,"HT1197, HT-1197",98.9 nM
same,IC50,"HT-3, HT-3",> 10000 nM
same,IC50,"HT-29, HT-29",95.2 nM
same,IC50,"HT-1080, HT-1080",53.5 nM
same,IC50,"HT-1376, HT1376",297 nM
same,IC50,HT,206 nM
same,IC50,"HUH-6-clone5, HUH-6 Clone 5",361 nM
same,IC50,HeLa,230 nM
same,IC50,"HepG2, HepG2",214 nM
same,IC50,Hs 294T,12.3 nM
same,IC50,Hs 695T,602 nM
same,IC50,"Hs746T, HS 746T",171 nM
same,IC50,Hs766T,1120 nM
same,IC50,"Hs-578T, Hs 578T",947 nM
same,IC50,"HuCCT-1, HuCCT1",225 nM
same,IC50,"HuP-T4, HuP-T4",84.9 nM
same,IC50,"J82, J82",83.1 nM
same,IC50,"J-RT3-T3-5, J-RT3-T3-5",43.2 nM
same,IC50,JAR,485 nM
same,IC50,"JEG-3, JEG-3",216 nM
same,IC50,Jurkat,130 nM
same,IC50,"K562, K562",146 nM
same,IC50,KATO III,16.7 nM
same,IC50,KHOS-240S,124 nM
same,IC50,KLE,> 10000 nM
same,IC50,"KPL-1, KPL-1",1330 nM
same,IC50,"L-428, L-428",330 nM
same,IC50,LNCaP,2930 nM
same,IC50,"LS174T, LS-174T",170 nM
same,IC50,MC-IXC,615 nM
same,IC50,"MCF7, MCF7",10.9 nM
same,IC50,"MDA-MB-231, MDA MB 231",56.7 nM
same,IC50,"MDA-MB-436, MDA-MB-436",49.7 nM
same,IC50,"MDA-MB-453, MDA MB 453",64.5 nM
same,IC50,"MDA-MB-468, MDA MB 468",4.83 nM
same,IC50,"MEG-01, MEG01",> 10000 nM
same,IC50,MES-SA,72 nM
same,IC50,"MG-63, MG-63",96 nM
same,IC50,"MHH-PREB-1, MHH-PREB-1",> 10000 nM
same,IC50,"MIA PaCa-2, Mia PaCa-2",158 nM
same,IC50,"MOLT-3, MOLT-3",217 nM
same,IC50,"MOLT-16, MOLT-16",54.2 nM
same,IC50,"MT-3, MT-3",46.4 nM
same,IC50,"MV4-11, MV-4-11",65.8 nM
same,IC50,"MX1, MX1",294 nM
same,IC50,"Malme-3M, MALME3M",265 nM
same,IC50,MeWo,249 nM
same,IC50,"NALM-6, NALM-6",110 nM
same,IC50,"NCI-H69, NCI-H69",144 nM
same,IC50,NCI-H295R,> 10000 nM
same,IC50,"NCI-H441, NCIH441",556 nM
same,IC50,"NCI-H446, NCIH446",570 nM
same,IC50,"NCI-H460, NCI-H460",224 nM
same,IC50,"NCI-H508, NCI-H508",307 nM
same,IC50,"NCI-H520, NCI-H520",15.6 nM
same,IC50,"NCI-H596, NCI-H596",188 nM
same,IC50,"NCI-H661, NCI-H661",152 nM
same,IC50,"NCI-H747, NCI-H747",2580 nM
same,IC50,"OCUG-1, OCUG-1",379 nM
same,IC50,"OE19, OE19",98 nM
same,IC50,"OE33, OE33",231 nM
same,IC50,"OVCAR-3, OVCAR3",51.4 nM
same,IC50,"PANC-1, PANC-1",165 nM
same,IC50,"PC-3, PC-3",873 nM
same,IC50,RD,639 nM
same,IC50,RKO,772 nM
same,IC50,"RKOAS451, RKO-AS45-1",113 nM
same,IC50,"RKOE6, RKOE6",210 nM
same,IC50,"RL95-2, RL95-2",218 nM
same,IC50,"RPMI-6666, RPMI 6666",748 nM
same,IC50,"RPMI-7951, RPMI-7951",44.2 nM
same,IC50,"RPMI-8226, RPMI 8226",58.4 nM
same,IC50,Raji,24.5 nM
same,IC50,"Ramos, Ramos (RA 1)",546 nM
same,IC50,"SAOS-2, SaOS2",48.2 nM
same,IC50,"SCC-4, SCC-4",286 nM
same,IC50,"SCC-9, SCC-9",747 nM
same,IC50,"SCC-25, SCC-25",273 nM
same,IC50,SCaBER,123 nM
same,IC50,"SH-4, SH-4",75.2 nM
same,IC50,"SJRH30, SJRH30",472 nM
same,IC50,"SK-BR-3, SK-BR-3",76.4 nM
same,IC50,"SK-LMS-1, SK-LMS-1",113 nM
same,IC50,"SK-MEL3, SK-MEL-3",181 nM
same,IC50,"SK-MEL-1, SK-MEL-1",38.7 nM
same,IC50,"SK-MEL-28, SK-MEL-28",239 nM
same,IC50,"SK-MES-1, SKMES1",807 nM
same,IC50,SK-N-AS,31.9 nM
same,IC50,SK-N-DZ,257 nM
same,IC50,SK-N-FI,308 nM
same,IC50,"SK-NEP-1, SK-NEP-1",264 nM
same,IC50,"SK-OV-3, SKOV3",52.6 nM
same,IC50,"SK-UT-1, SK-UT-1",42.1 nM
same,IC50,"SKO-007, SKO-007",84.4 nM
same,IC50,"SNB-19, SNB-19",223 nM
same,IC50,"SNU1, SNU-1",1040 nM
same,IC50,"SNU-16, SNU-16",34.4 nM
same,IC50,"SNU-423, SNU-423",66 nM
same,IC50,SR,275 nM
same,IC50,"ST486, ST486",101 nM
same,IC50,"SU.86.86, SU.86.86",934 nM
same,IC50,"SW13, SW-13",211 nM
same,IC50,"SW48, SW48",> 10000 nM
same,IC50,"SW480, SW480",413 nM
same,IC50,"SW579, SW579",83.3 nM
same,IC50,"SW684, SW684",1170 nM
same,IC50,"SW837, SW837",102 nM
same,IC50,"SW872, SW872",54 nM
same,IC50,"SW900, SW900",3250 nM
same,IC50,"SW948, SW948",120 nM
same,IC50,"SW 954, SW954",> 10000 nM
same,IC50,"SW1088, SW1088",40.5 nM
same,IC50,"SW1353, SW1353",129 nM
same,IC50,"SW1417, SW1417",773 nM
same,IC50,"SW1463, SW1463",770 nM
same,IC50,"SW1783, SW1783",389 nM
same,IC50,"SW-403, SW403",153 nM
same,IC50,"SW-620, SW620",5640 nM
same,IC50,SiHa,2510 nM
same,IC50,T47D,52.4 nM
same,IC50,T98G,27.3 nM
same,IC50,"T-24, T24",449 nM
same,IC50,"TCC-SUP, TCCSUP",235 nM
same,IC50,"THP-1, Thp1",80.5 nM
same,IC50,"U138-MG, U-138MG",43.3 nM
same,IC50,U266B1,78.5 nM
same,IC50,U-87 MG,67.6 nM
same,IC50,"UMUC3, UM-UC-3",105 nM
same,IC50,"WI-38, Wi38",18.5 nM
same,IC50,WiDr,505 nM
same,IC50,"Y79, Y79",113 nM
same,IC50,YAPC,168 nM
